Results taken from patent US11607446B2, “Personalized immunotherapy against several neuronal and brain tumors” (Immatics Biotechnologies GmbH, priority 2013, dated 2023).

Assays:
CD8+ T cells [1] = test: In vitro immunogenicity of HLA-A*24 class I peptides: in vitro T-cell priming with aAPCs loaded with peptide/MHC complexes and anti-CD28 antibody, pMHC multimer readout; format: cell-based, human; conditions: for Wells: share of positive wells in the in vitro immunogenicity experiments
Description: In order to obtain information regarding the immunogenicity of the TUMAPs of the present invention, we performed investigations using an in vitro T-cell priming assay based on repeated stimulations of CD8+ T cells with artificial antigen presenting cells (aAPCs) loaded with peptide/MHC complexes and anti-CD28 antibody.
Isolated CD8+ lymphocytes or PBMCs were incubated until use in T-cell medium (TCM) consisting of RPMI-Glutamax (Invitrogen, Karlsruhe, Germany) supplemented with 10% heat inactivated human AB serum (PAN-Biotech, Aidenbach, Germany), 100 U/ml Penicillin/100 μg/ml Streptomycin (Cambrex, Cologne, Germany), 1 mM sodium pyruvate (CC Pro, Oberdorla, Germany), 20 μg/ml Gentamycin (Cambrex). 2.5 ng/ml IL-7 (PromoCell, Heidelberg, Germany) and 10 U/ml IL-2 (Novartis Pharma, Nurnberg, Germany) were also added to the TCM at this step. Generation of pMHC/anti-CD28 coated beads, T-cell stimulations and readout was performed in a highly defined in vitro system using four different pMHC molecules per stimulation condition and 8 different pMHC molecules per readout condition. All pMHC complexes used for aAPC loading and cytometric readout were derived from UV-induced MHC ligand exchange with minor modifications. In order to determine the amount of pMHC monomer obtained by exchange we performed streptavidin-based sandwich ELISAs according to (Rodenko et al., 2006). The purified co-stimulatory mouse IgG2a anti human CD28 Ab 9.3 (Jung et al., 1987) was chemically biotinylated using Sulfo-N-hydroxysuccinimidobiotin as recommended by the manufacturer (Perbio, Bonn, Germany). Beads used were 5.6 μm diameter streptavidin coated polystyrene particles (Bangs Laboratories, Illinois, USA).
800.000 beads/200 μl were coated in 96-well plates in the presence of 4×12.5 ng different biotin-pMHC, washed and 600 ng biotin anti-CD28 were added subsequently in a volume of 200 μl. Stimulations were initiated in 96-well plates by co-incubating 1×10^6 CD8+ T cells with 2×10^5 washed coated beads in 200 μl TCM supplemented with 5 ng/ml IL-12 (PromoCell) for 3-4 days at 37° C. Half of the medium was then exchanged by fresh TCM supplemented with 80 U/ml IL-2 and incubating was continued for 3-4 days at 37° C. This stimulation cycle was performed for a total of three times, with 12 individual wells per condition For the pMHC multimer readout using 8 different pMHC molecules per condition, a two-dimensional combinatorial coding approach was used as previously described (Andersen et al., 2012) with minor modifications encompassing coupling to 5 different fluorochromes. Finally, multimeric analyses were performed by staining the cells with Live/dead near IR dye (Invitrogen, Karlsruhe, Germany), CD8-FITC antibody clone SK1 (BD, Heidelberg, Germany) and fluorescent pMHC multimers. For analysis, a BD LSRII SORP cytometer equipped with appropriate lasers and filters was used. Peptide specific cells were calculated as percentage of total CD8+ cells. Evaluation of multimeric analysis was done using the FlowJo software (Tree Star, Oregon, USA). In vitro priming of specific multimer+ CD8+ lymphocytes was detected by comparison to irrelevant control stimulations.
Exemplary flow cytometry results after TUMAP-specific multimer staining for two peptides of the invention are shown in FIG. 4 together with corresponding negative controls.

CD8+ T cells [2] = test: In vitro immunogenicity of HLA-A*02 class I peptides: in vitro T-cell priming with aAPCs loaded with peptide/MHC complexes and anti-CD28 antibody, pMHC multimer readout; format: cell-based, human; conditions: HLA-A*02 peptides
[3] = share of positive donors in the in vitro immunogenicity experiments, given as a class symbol

Substance | Donors (CD8+ T cells [1]; [3]) | Wells (CD8+ T cells [1]; given as a class symbol) | Donors (CD8+ T cells [1]) | Donors (CD8+ T cells [2]; healthy donors, specific multimer+ CD8+ T-cell line after in vitro stimulation) | Wells (CD8+ T cells [2]; in vitro stimulated wells of healthy donors' CD8+ T cells, specific multimer+ readout)
AFSPDSHYLLF (listed as Homo sapiens) [ITGA7-001] | ++ (20%-49 % = ++) | + (<20% = +) | – | – | –
AYLIDIKTI (listed as Homo sapiens) [IFT17-001] | +++ (50%-70% = +++) | + (<20% = +) | – | – | –
AYPRLSLSF (listed as Homo sapiens) [GAB-001] | ++ (20%-49 % = ++) | + (<20% = +) | – | – | –
AYSDGHFLF (listed as Homo sapiens) [TENM4-001] | ++ (20%-49 % = ++) | + (<20% = +) | – | – | –
AYVLRLETL (listed as Homo sapiens) [PNMA2-001] | ++ (20%-49 % = ++) | + (<20% = +) | – | – | –
CRB 1-001 (SYFENVHGF; listed as Homo sapiens) | ++ (20%-49 % = ++) | + (<20% = +) | – | – | –
EYIRALQQL (listed as Homo sapiens) [ASCL1-001] | ++ (20%-49 % = ++) | + (<20% = +) | – | – | –
EYMKALGVGF (listed as Homo sapiens) [FABP7-002] | ++ (20%-49 % = ++) | + (<20% = +) | – | – | –
FYGPQVNNI (listed as Homo sapiens) [WASL-001] | ++++ (>70% = ++++) | + (<20% = +) | – | – | –
HYKPTPLYF (listed as Homo sapiens) [SMC4-001] | ++ (20%-49 % = ++) | + (<20% = +) | – | – | –
IFTYIHLQL (listed as Homo sapiens) [LOC72839-001] | +++ (50%-70% = +++) | + (<20% = +) | – | – | –
IYGGHHAGF (listed as Homo sapiens) [OLIG2-001] | ++ (20%-49 % = ++) | + (<20% = +) | – | – | –
KFAEEFYSF (listed as Homo sapiens) [CDCA7L-001] | ++ (20%-49 % = ++) | + (<20% = +) | – | – | –
KYFDKVVTL (listed as Homo sapiens) [KIF7-001] | ++ (20%-49 % = ++) | + (<20% = +) | – | – | –
KYFGGVLEYF (listed as Homo sapiens) [RHOBTB3-001] | ++ (20%-49 % = ++) | + (<20% = +) | – | – | –
KYFSFPGEL (listed as Homo sapiens) [SLC-002] | ++ (20%-49 % = ++) | + (<20% = +) | – | – | –
KYNEFSVSL (listed as Homo sapiens) [HEATR1-001] | +++ (50%-70% = +++) | + (<20% = +) | – | – | –
KYNLINEYF (listed as Homo sapiens) [HS2-001] | ++ (20%-49 % = ++) | + (<20% = +) | – | – | –
LYIYPQSLNF (listed as Homo sapiens) [DOCK7-002] | +++ (50%-70% = +++) | + (<20% = +) | – | – | –
MYPYIYHVL (listed as Homo sapiens) [FAM120C-001] | ++++ (>70% = ++++) | ++ (20%-49 % = ++) | 100% | – | –
NROB1-001 (AYLKGTVLF; listed as Homo sapiens) | ++ (20%-49 % = ++) | + (<20% = +) | – | – | –
NYIDNVGNLHF (listed as Homo sapiens) [LNX1-001] | ++ (20%-49 % = ++) | + (<20% = +) | – | – | –
NYKDLNGNVF (listed as Homo sapiens) [SSR1-001] | ++ (20%-49 % = ++) | + (<20% = +) | – | – | –
NYNDRYDEI (listed as Homo sapiens) [RPL-001] | ++ (20%-49 % = ++) | + (<20% = +) | – | – | –
NYQDTIGRL (listed as Homo sapiens) [VIM-002] | ++ (20%-49 % = ++) | + (<20% = +) | – | – | –
NYTSLLVTW (listed as Homo sapiens) [PTP-018] | ++++ (>70% = ++++) | + (<20% = +) | – | – | –
NYTSLLVTW^+4 (listed as Homo sapiens) [PTP-019] | ++ (20%-49 % = ++) | + (<20% = +) | – | – | –

Substance | Donors (CD8+ T cells [1]; [3]) | Wells (CD8+ T cells [1]; given as a class symbol) | Donors (CD8+ T cells [1]) | Donors (CD8+ T cells [2]; healthy donors, specific multimer+ CD8+ T-cell line after in vitro stimulation) | Wells (CD8+ T cells [2]; in vitro stimulated wells of healthy donors' CD8+ T cells, specific multimer+ readout)
PFAKPLPTF (listed as Homo sapiens) [EP4-001] | ++ (20%-49 % = ++) | + (<20% = +) | – | – | –
PYLDKFFAL (listed as Homo sapiens) [DOCK7-003] | ++ (20%-49 % = ++) | + (<20% = +) | – | – | –
PYNHQHEYF (listed as Homo sapiens) [FADS2-002] | ++++ (>70% = ++++) | + (<20% = +) | – | – | –
QWAPILANF (listed as Homo sapiens) [NKA-001] | ++ (20%-49 % = ++) | + (<20% = +) | – | – | –
QYQIIMTMI (listed as Homo sapiens) [FADS2-003] | +++ (50%-70% = +++) | + (<20% = +) | – | – | –
QYVFIHDTL (listed as Homo sapiens) [PTP-015] | ++ (20%-49 % = ++) | + (<20% = +) | – | – | –
RYGPQFTL (listed as Homo sapiens) [PCD-002] | ++ (20%-49 % = ++) | + (<20% = +) | – | – | –
RYIPLIVDI (listed as Homo sapiens) [ARHGAP21-001] | ++ (20%-49 % = ++) | + (<20% = +) | – | – | –
RYLPSSVFL (listed as Homo sapiens) [ZNF749-001] | ++ (20%-49 % = ++) | + (<20% = +) | – | – | –
RYQESLGNTVF (listed as Homo sapiens) [PJA2-001] | ++ (20%-49 % = ++) | + (<20% = +) | – | – | –
RYSDGLLRF (listed as Homo sapiens) [LZTS1-001] | ++ (20%-49 % = ++) | + (<20% = +) | – | – | –
SYNPLWLRI (listed as Homo sapiens) [ASPM-002] | +++ (50%-70% = +++) | + (<20% = +) | – | – | –
TYIIKSVGF (listed as Homo sapiens) [UNKN-003] | ++ (20%-49 % = ++) | + (<20% = +) | – | – | –
TYIPPLLVAF (listed as Homo sapiens) [TMEM231-001] | +++ (50%-70% = +++) | + (<20% = +) | – | – | –
TYNYAVLKF (listed as Homo sapiens) [GPM-002] | +++ (50%-70% = +++) | + (<20% = +) | – | – | –
TYTSYLDKF (listed as Homo sapiens) [MAPK6-001] | ++ (20%-49 % = ++) | + (<20% = +) | – | – | –
TYVDSSHTI (listed as Homo sapiens) [VCAN-003] | +++ (50%-70% = +++) | + (<20% = +) | – | – | –
VLPDADTLLHF (listed as Homo sapiens) [APC-001] | ++ (20%-49 % = ++) | + (<20% = +) | – | – | –
VYDTMIEKF (listed as Homo sapiens) [PTP-016] | ++ (20%-49 % = ++) | + (<20% = +) | – | – | –
VYLKEANAI (listed as Homo sapiens) [KIF1B-001] | ++ (20%-49 % = ++) | + (<20% = +) | – | – | –
VYLTIKPLNL (listed as Homo sapiens) [EFCAB7-001] | ++ (20%-49 % = ++) | + (<20% = +) | – | – | –
VYNDIGKEMLL (listed as Homo sapiens) [KIF1B-002] | ++ (20%-49 % = ++) | + (<20% = +) | – | – | –
VYNLTQEFF (listed as Homo sapiens) [SMOX-001] | ++ (20%-49 % = ++) | + (<20% = +) | – | – | –
VYQVLQEHL (listed as Homo sapiens) [BMP7-001] | ++ (20%-49 % = ++) | + (<20% = +) | – | – | –
VYYFHPQYL (listed as Homo sapiens) [ST8SIA5-001] | ++++ (>70% = ++++) | ++ (20%-49 % = ++) | – | – | –
YQDPHSTAV (listed as Homo sapiens) [EGFR-008] | – | – | – | ++ (20%-49 % = ++) | + (<20% = +)
